Measured values reported in patent US20240335505A1, “PRODUCTS AND METHODS FOR PROMOTING MYOGENESIS” (Ecole Polytechnique Federale de Lausanne (EPFL), priority 2021, published 2024).

Legend:
[1] = system: C. elegans; assay: Muscle function and morphology in aged C. elegans; format: in vivo; details: day 15 of adulthood; verteporfin 10 uM from L4 stage; egl-44 RNAi by maternal treatment (FIG. 19A-F)
Experimental: Transgenic Caenorhabditis Elegans. C. elegans strains were cultured at 20° C. on nematode growth medium (NGM) agar plates seeded with E. coli strain OP50 unless stated otherwise. Strains used in this study were the wild-type Bristol N2 and COP2054. N2 strain was provided by the Caenorhabditis Genetics Center (University of Minnesota). For RNAi experiments, worms were exposed to egl-44 RNAi or an empty vector control plasmid using maternal treatment to ensure robust knock down of the investigated gene. Verteporfin was dissolved in DMSO, and used at a final concentration of 10 uM. Worms were exposed to verteporfin starting from L4 stage. Verteporfin or DMSO was added to agar before preparing plates. To ensure a permanent exposure to the compound, plates were changed twice a week. The COP2054 worm strain expressing human CYTOR was generated by a custom transgenic service (Knudra Transgenics, Salt Lake City, UT). Briefly, Mosi-mediated Single Copy Insertion (MosSCI) started with the construction of myo3p::CYTOR::tbb2u, where the myo3p promoter and tbb-2 3′-UTR were taken from the N2 genome, and CYTOR was synthesized with codon and intron optimization for C. elegans. […]
C. […] 45 to 60 worms per condition were manually scored for paralysis after poking. Worms that were unable to respond to any repeated stimulation were scored as dead. […]

[2] = target: T1, Tead1 (Mus musculus, UniProt P30051); assay: C2C12 myoblast differentiation after disruption of Tead1 function (siRNA or Verteporfin); format: cell-based
T1 construct: endogenous in cells; host or cells: C2C12 mouse myoblasts (ATCC CRL-1772)
T1 sequence (P30051 whole entry): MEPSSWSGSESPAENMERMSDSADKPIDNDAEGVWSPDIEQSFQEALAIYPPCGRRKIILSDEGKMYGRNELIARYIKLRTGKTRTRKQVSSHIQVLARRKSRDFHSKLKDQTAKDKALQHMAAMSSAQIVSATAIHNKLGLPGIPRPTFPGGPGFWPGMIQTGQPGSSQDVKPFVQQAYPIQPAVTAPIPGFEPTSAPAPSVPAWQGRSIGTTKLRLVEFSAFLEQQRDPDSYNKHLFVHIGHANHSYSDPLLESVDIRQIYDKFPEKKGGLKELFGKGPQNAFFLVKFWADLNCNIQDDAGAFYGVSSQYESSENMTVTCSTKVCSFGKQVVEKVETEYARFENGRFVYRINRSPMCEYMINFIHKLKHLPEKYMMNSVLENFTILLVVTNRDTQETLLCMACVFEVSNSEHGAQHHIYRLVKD
Experimental: Cell culture. The C2C12 mouse myoblast cell line was obtained from the American Type Culture Collection (CRL-1772TM). C2C12 and HEK293T cells (CRL-3216™, ATCCR) were cultured in growth medium consisting of Dulbecco's modified Eagle's medium (Gibco, 41966-029), 20% Fetal Bovine Serum (Gibco, 10270-106) and 100 U/mL penicillin and […] streptomycin (Gibco, 15140-122). Differentiation of Cytor/CYTOR overexpressing cells or Tead1 silenced cells were assessed in culture medium. Human skeletal muscle myoblasts (Lonza, Switzerland) were cultured in DMEM/F12 Glutamax (31331093, Gibco) supplemented with 20% FBS (Gibco, 10270-106) and 1% penicillin/streptomycin (15140-122, Gibco). Human skeletal muscle myoblasts from young, old and DMD donors were obtained from the Groupement Hospitalier Est (CBC BioTec, Centre de Ressources Biologique) and cultured in Ham F10 medium (11550043, Thermo Fisher) with 12% FBS (10270-106, Gibco) and 1% penicillin/streptomycin (Gibco, 15140-122). Muscle cell differentiation was achieved by substituting FBS with 2% horse serum (Gibco, 16050-122). For detachment Trypsin-EDTA 0.05% (25300-062, Gibco) was used for all cell lines. All cells were maintained at 37° C. and 5% CO2. Cell lines were continuously tested for mycoplasma contamination.
Cell transfection and transduction. Cell transfections were done using TransiT (Mirus) according to the manufacturer's protocol with a 3:1 ratio of transfection agent to DNA. 24 well plates were transfected with 150 ng DNA, 12 well plates with 300 ng DNA, and 6 well plates with 1 ug DNA. To transfect 25 nM GapmeR or siRNA in C2C12, LipofectamineR RNAiMAX (Thermo Scientific, 13778100) was used following manufacturer's instructions. […]
Immunocytochemistry. […] The myofusion index was calculated as the ratio of nuclei within myotubes to total nuclei. Myotube diameter was measured for 10 randomly chosen myotubes per image. Myotube area was calculated as the total area covered by myotubes. […]

myotube area ([2]; C2C12 myoblasts (FIG. 18B)): increase myotube area
myofusion ([2]; C2C12 myoblasts (FIG. 18C)): increase
expression of type II myosin isoforms ([2]; C2C12 myoblasts (FIG. 18D)): induce the expression of type II
Substance: Verteporfin
function and morphology of aged C. elegans (movement, speed, activity, paralysis, death) [1]: phenocopied the beneficial effect of Cytor
